The values that follow come from paper PMC12079242, “Design, Synthesis, Biological Evaluation, and Molecular Docking Studies of Novel 1,3,4-Thiadiazole Derivatives Targeting Both Aldose Reductase and α-Glucosidase for Diabetes Mellitus” (ACS Omega, 2025).

Broadly, the Ki is the equilibrium dissociation constant of an inhibitor or competing ligand from its target. The IC50 is the concentration that gives 50% inhibition.

For data set [1], the target named is α-Glucosidase from Saccharomyces cerevisiae. As to the kind of experiment: α-Glycosidase inhibition assay with pNPG substrate. The class given is biochemical. To be noted: for Ki: Lineweaver–Burk plots, read-out: α-GLY KI; for IC50: mean ± SEM, read-out: α-GLY IC50. Here is the method:
α-Glucosidase activity (α-Glucosidase from Saccharomyces cerevisiae) was assessed using p-nitrophenyl-D-glycopyranoside (pNPG) as the substrate, following the procedure outlined by Tao et al.[60],[61] Initially, 100 μL of phosphate buffer was mixed with 20 μL of the enzyme solution (0.15 U/mL, pH 6.8) and 10–100 μL (0.01–1 mg/mL^–1) of the sample. To ensure complete enzyme inhibition, multiple solutions were prepared in phosphate buffer. The mixture was preincubated at 35 °C for 12 min before the reaction was initiated by adding pNPG. Subsequently, 50 μL of pNPG solution (5.0 mM, pH 7.4) was added and incubated at 37 °C. Absorbance was measured spectrophotometrically at 405 nm.
Furthermore, the types of inhibition and inhibition constants (KI) were calculated from Lineweaver–Burk plots, providing detailed insights into the kinetic properties of these inhibitors.[62],[63]

In the next data set the test system is S. typhimurium TA 98. As to the kind of experiment: Ames II mutagenicity test, TA 98. It is filed as cell-based, Salmonella typhimurium. Here is the method:
(§1) Ames II Mutagenicity Assay Kit BioReliance and Moltox (Moltox, Boone, NC) kit were used in the experiment and the experiment was performed completely according to the kit procedure.[68]S. typhimurium TA 98 (hisD3052) and TA mix (hisG1775, hisC9138, hisG9074, hisG9133, hisG9130, hisC9070) strains were incubated in 50 mL tubes containing 10 mL growth medium at 37 °C for 24 h. At the end of the time, the OD600 value of the suspension was measured. Since the OD600 value ≥ 2.0, the experimental procedure was continued. The dilutions of 10 μL of compound 6h at 75, 37.5, 18.75, 9.4, 4.7 μM and compound 6o at […] were prepared at 5 different concentrations of the test substances dissolved in DMSO. The exposure plates (24 wells) with and without the S9 enzyme fraction were prepared for both strains. The exposure medium, bacteria, and test substance were added to the plates without S9 enzyme fraction in the amounts specified in the procedure; S9 enzyme fraction was added to the plates containing S9 enzyme fraction and incubated at 37 °C, 250 rpm for 90 min with shaking. At the end of the incubation period, […] of purple colored indicator medium specific for bacterial strains was added to each well of the plate. 4-Nitroquinoline-N-Oxide (4-NQO) - 2-Nitrofluorene (2-NF), and 2-Aminoanthracene (2-AA) were used as positive control and only DMSO was used as negative control. The contents of 50 μL in each well were transferred to 384 plates according to the determined experimental design and incubated at 37 °C for 48 h. At the end of the incubation period, bacterial metabolism in the plates changes the pH and changes the purple color to yellow. The number of yellow wells formed at the end of the experiment was determined as positive wells and the genotoxic properties of the substances were interpreted. Means and SD values of positive wells were calculated.[69]

The subject of the next data set is S. typhimurium TA mix. Kind of data set: Ames II mutagenicity test, TA mix. The class given is cell-based, Salmonella typhimurium. The note with it: for Average number of the positive wells: TA Mix; for mutagenicity: TA mix strain. Here is the method:
as §1
On the technique in general: The Ames test detects mutagens through reverse mutation in bacteria.

Consider `O=C(CSc1nnc(NC2CCCCC2)s1)N(Cc1ccc([N+](=O)[O-])cc1)c1ccc(Cl)cc1` [6f, N-(4-Chlororophenyl)-2-[(5-(cyclohexylamino)-1,3,4-thiadiazol-2-yl)thio]-N-(4-nitrobenzyl) Acetamide], for which, in data set [1], the inhibition constant (Ki) stood at 342 ± 22.4 µM and the IC50 was 347 ± 18.3 µM.
Consider `Nc1ccc2cc3ccccc3cc2c1` [2-AA, 2-Aminoanthracene, reference compound], for which the “Average number of the positive wells” value in the data set on S. typhimurium TA 98 (TA 98, S9+, positive control) was found to be 16; in the data set on S. typhimurium TA 98 (TA 98, S9–, positive control), 16; with S. typhimurium TA mix (S9+, positive control) it was 16; in the data set on S. typhimurium TA mix (S9–, positive control) it was 16.
With `O=C(CSc1nnc(Nc2ccccc2)s1)N(Cc1ccc([N+](=O)[O-])cc1)c1ccc(F)cc1` [6p, N-(4-Fluorophenyl)-2-[(5-(phenylamino)-1,3,4-thiadiazol-2-yl)thio]-N-(4-nitrobenzyl)acetamide], in data set [1], the inhibition constant Ki is 8.38 ± 0.12 µM and the IC50 was determined as 8.25 ± 0.56 µM.
In the case of `Cc1ccc(Nc2nnc(SCC(=O)N(Cc3ccc([N+](=O)[O-])cc3)c3ccc(Cl)cc3)s2)cc1` [6h, N-(4-Chlororophenyl)-2-[(5-(4-methylphenylamino)-1,3,4-thiadiazol-2-yl)thio]-N-(4-nitrobenzyl) Acetamide], the “Average number of the positive wells” value in the data set on S. typhimurium TA 98 (TA 98, S9+, 4.7 μM) was found to be 0; in the data set with S. typhimurium TA 98 (TA 98, S9+, 9.4 μM) it was 0; in the data set on S. typhimurium TA 98 (TA 98, S9+, 18.75 μM), 0; in the data set with S. typhimurium TA 98 (TA 98, S9+, 37.5 μM), 0; in the data set on S. typhimurium TA 98 (TA 98, S9+, 75 μM), 0; in the data set with S. typhimurium TA 98 (TA 98, S9–, 4.7 μM), 0. The “Average number of the positive wells” value was determined as 0 in the data set on S. typhimurium TA 98 (TA 98, S9–, 9.4 μM); 0 in the data set on S. typhimurium TA 98 (TA 98, S9–, 18.75 μM); 0 with S. typhimurium TA 98 (TA 98, S9–, 37.5 μM); 0 with S. typhimurium TA 98 (TA 98, S9–, 75 μM); 0 in the data set with S. typhimurium TA mix (S9+, 4.7 μM); 0 in the data set on S. typhimurium TA mix (S9+, 9.4 μM). The “Average number of the positive wells” value is listed as 0 in the data set with S. typhimurium TA mix (S9+, 18.75 μM); 0 in the data set on S. typhimurium TA mix (S9+, 37.5 μM); 8 in the data set on S. typhimurium TA mix (S9+, 75 μM); 0 with S. typhimurium TA mix (S9–, 4.7 μM); 0 with S. typhimurium TA mix (S9–, 9.4 μM); 0 with S. typhimurium TA mix (S9–, 18.75 μM). Also, the “Average number of the positive wells” value amounted to 0 in the data set with S. typhimurium TA mix (S9–, 37.5 μM) and 5 in the data set on S. typhimurium TA mix (S9–, 75 μM). Further, the mutagenicity result with S. typhimurium TA mix (presence and absence of S9, 75 μM) is “mutagenicity was detected”. For the same molecule, the Ki in data set [1] is 4.48 ± 0.25 µM. In addition, the half-inhibitory concentration (IC50) in data set [1] was determined as 4.68 ± 0.23 µM.
With `COCCNc1nnc(SCC(=O)N(Cc2ccc([N+](=O)[O-])cc2)c2ccc(F)cc2)s1` [6j, N-(4-Fluorophenyl)-2-[(5-((2-methoxyethyl)amino)-1,3,4-thiadiazol-2-yl)thio]-N-(4-nitrobenzyl) Acetamide], in data set [1], the Ki came out at 15.9 ± 0.92 µM and the half-inhibitory concentration (IC50) is 16.5 ± 0.93 µM.
As for `CCCCNc1nnc(SCC(=O)N(Cc2ccc([N+](=O)[O-])cc2)c2ccc(F)cc2)s1` [6m, N-(4-Fluorophenyl)-2-[(5-(butylamino)-1,3,4-thiadiazol-2-yl)thio]-N-(4-nitrobenzyl) Acetamide], the IC50 in data set [1] is > 500 µM.
In the case of `CC(C)CNc1nnc(SCC(=O)N(Cc2ccc([N+](=O)[O-])cc2)c2ccc(Cl)cc2)s1` [6e, N-(4-Chlororophenyl)-2-[(5-(isobutylamino)-1,3,4-thiadiazol-2-yl)thio]-N-(4-nitrobenzyl) Acetamide], in data set [1], the Ki came to 96.5 ± 6.15 µM and the half-maximal inhibitory concentration (IC50) was 99 ± 7.37 µM.
On to `O=C(CSc1nnc(NC2CCCCC2)s1)N(Cc1ccc([N+](=O)[O-])cc1)c1ccc(F)cc1` [6o, N-(4-Fluorophenyl)-2-[(5-(cyclohexylamino)-1,3,4-thiadiazol-2-yl)thio]-N-(4-nitrobenzyl)acetamide], for which the “Average number of the positive wells” value is recorded as 0 in the data set on S. typhimurium TA 98 (TA 98, S9+, 3.125 nM); 0 in the data set on S. typhimurium TA 98 (TA 98, S9+, 6.25 nM); 0 with S. typhimurium TA 98 (TA 98, S9+, 12.5 nM); 0 with S. typhimurium TA 98 (TA 98, S9+, 25 nM); 0 in the data set with S. typhimurium TA 98 (TA 98, S9+, 50 nM); 0 with S. typhimurium TA 98 (TA 98, S9–, 3.125 nM). The “Average number of the positive wells” value in the data set on S. typhimurium TA 98 (TA 98, S9–, 6.25 nM) is given as 0; with S. typhimurium TA 98 (TA 98, S9–, 12.5 nM), 0; in the data set with S. typhimurium TA 98 (TA 98, S9–, 25 nM), 0; in the data set with S. typhimurium TA 98 (TA 98, S9–, 50 nM), 0; with S. typhimurium TA mix (S9+, 3.125 nM) it was 0; in the data set with S. typhimurium TA mix (S9+, 6.25 nM), 0. Moreover, the “Average number of the positive wells” value in the data set with S. typhimurium TA mix (S9+, 12.5 nM) was 0; in the data set with S. typhimurium TA mix (S9+, 25 nM) it was 0; in the data set on S. typhimurium TA mix (S9+, 50 nM) it was 15.3; in the data set on S. typhimurium TA mix (S9–, 3.125 nM), 0; in the data set on S. typhimurium TA mix (S9–, 6.25 nM), 0; in the data set with S. typhimurium TA mix (S9–, 12.5 nM) it was 0. In addition, the “Average number of the positive wells” value is given as 0 in the data set on S. typhimurium TA mix (S9–, 25 nM) and 15.3 in the data set with S. typhimurium TA mix (S9–, 50 nM). The mutagenicity result in the data set on S. typhimurium TA mix (presence and absence of S9, 50 nM) is on record as “mutagenicity was detected”. Besides, the inhibition constant Ki in data set [1] came to 12.5 ± 1.08 µM. Besides, the IC50 in data set [1] came out at 34.6 ± 1.78 µM.
For the molecule `CC(C)Nc1nnc(SCC(=O)N(Cc2ccc([N+](=O)[O-])cc2)c2ccc(F)cc2)s1` [6l, N-(4-Fluorophenyl)-2-[(5-(isopropylamino)-1,3,4-thiadiazol-2-yl)thio]-N-(4-nitrobenzyl)acetamide], the half-maximal inhibitory concentration (IC50) in data set [1] was > 500 µM.
`CCCNc1nnc(SCC(=O)N(Cc2ccc([N+](=O)[O-])cc2)c2ccc(F)cc2)s1` [6k, N-(4-Fluorophenyl)-2-[(5-(propylamino)-1,3,4-thiadiazol-2-yl)thio]-N-(4-nitrobenzyl) Acetamide]: the half-maximal inhibitory concentration (IC50) in data set [1] is > 500 µM.
Consider `CCNc1nnc(SCC(=O)N(Cc2ccc([N+](=O)[O-])cc2)c2ccc(Cl)cc2)s1` [6a, N-(4-Chlororophenyl)-2-[(5-(ethylamino)-1,3,4-thiadiazol-2-yl)thio]-N-(4-nitrobenzyl) Acetamide], for which, in data set [1], the inhibition constant (Ki) worked out at 11.9 ± 0.62 µM and the 50% inhibitory concentration (IC50) is 12.6 ± 0.75 µM.
Taken in the same sequence, the figures for `Cc1ccc(Nc2nnc(SCC(=O)N(Cc3ccc([N+](=O)[O-])cc3)c3ccc(F)cc3)s2)cc1` [6q, N-(4-Fluorophenyl)-2-[(5-(4-methylphenylamino)-1,3,4-thiadiazol-2-yl)thio]-N-(4-nitrobenzyl) Acetamide] were 7.86 ± 0.62 µM and 8.15 ± 0.48 µM.
